{
  "source": "patent US20110280913A1",
  "about": "“Methods and Compositions for Delivering Therapeutic Agents in the Treatment of B-Cell Related Disorders” (THE OHIO STATE UNIVERSITY, priority 2008, published 2011)",
  "key": {"CD5": {"system": "CD5", "experiment": "Immunophenotyping (flow cytometry) of CD5 on CLL cells", "assay_type": "cell-based, human", "conditions": "0.5 μM, vs vehicle", "description": "(§1) Immunophenotyping was performed to determine the percentage and mean fluorescence intensity of CD20, CD19, CD5, CD23, CD38, CD3, and CD52 on CLL cells relative to a specific isotype control. Cells (10^6) were washed in PBS, stained with fluorochrome-labeled antibodies at 4° C., then rinsed in PBS and analyzed by flow cytometry (EPICS-XL; Beckman Coulter, Fullerton, Calif.). A total of 10,000 events were collected and analyzed using Windows Multiple Document Interface for Flow Cytometry (WinMDI). CD20, CD19, CD3, CD5, CD23, and CD38 antibodies were obtained from BD Biosciences (San Jose, Calif.), and CD52 antibody was obtained from Serotec (Raleigh, N.C.)."}, "CD20 [1]": {"system": "CD20", "experiment": "Immunophenotyping (flow cytometry) of CD20 on CLL cells", "assay_type": "cell-based, human", "description": "as §1\nAll analyses were performed by the Center for Biostatistics, The Ohio State University. Mixed effects models were fitted to the cytotoxicity data. Random effects associated with the interactions were always included in the models to ensure that error was not underestimated. SPSS software, version 13.0 (SPSS, Chicago, Ill.) was used for the statistical analysis. Nonparametric paired Wilcoxon signed ranked tests were performed to examine both the proportion and mean fluorescence intensity change of cells expressing specific antigens after treatment with lenalidomide or media for 48 hours. A paired t test was used to evaluate whether there was a change in CD20 expression level between cells treated with lenalidomide and untreated control."}, "CD20 [2]": {"system": "CD20", "experiment": "Laser-scanning confocal microscopy of CD20 internalization", "assay_type": "cell-based, human", "conditions": "lenalidomide 48 h at 37° C.", "description": "Binding and internalization of anti-CD20 in CLL cells were examined by laser scanning confocal microscopy. CLL cells were incubated with lenalidomide for 48 hours at 37° C. and then collected and washed twice with PBS followed by fixation with 2% paraformaldehyde. Cells were then attached on a slide glass using Cytospin (Thermo Electron, Waltham, Mass.) and permeablilized with cold acetone for 5 minutes. Before cell membrane and nucleus staining, cells were preincubated with 1% bovine serum albumin in PBS for 1 hour at room temperature to reduce nonspecific binding. Cells were incubated with 50 μg/mL concanavalin A (Invitrogen) for 5 minutes at room temperature to stain cell membrane and with 1 μg/mL DRAQ5TM (Biostatus, Leicestershire, United Kingdom) for 5 minutes at room temperature to stain nucleus. Finally, slides were rinsed twice with PBS and covered with glass for confocal microscopy observation. Green fluorescence of fluorescein isothiocyanate-CD20, red fluorescence of concanavalin A, and blue fluorescence of DRAQ5 were analyzed, and merged images were produced using Zeiss 510 META Laser Scanning Confocal Imaging Systems and LSM Image software (Carl Zeiss, Thornwood, N.Y.)."}, "CLL cells [3]": {"system": "CLL cells", "experiment": "Apoptosis of CLL cells with lenalidomide alone", "assay_type": "cell-based, human", "conditions": "0.5 μM lenalidomide, 48 or 72 hours", "description": "CLL B cells were isolated by Ficoll centrifugation using Rosette-Sep reagent (StemCell Technologies, Vancouver, BC) according to the manufacturer's instructions. CLL cells were incubated in RPMI 1640 medium supplemented with 10% heat-inactivated human serum (Valley Biomedical, Winchester, Va.), 2 mM L-glutamine (Invitrogen, Carlsbad, Calif.), and 100 U/mL penicillin/100 μg/mL streptomycin (Sigma-Aldrich, St Louis, Mo.) at 37° C. in 5% CO2.\nIn addition, samples with no treatment or crosslinker alone were collected at matched time points. […]\nCytotoxicity results were expressed as percentage of total positive cells over untreated control [% positive cells=(% annexin^+ and/or PI^+ cells of treatment group)−(% annexin^+ and/or PI^+ cells of untreated control)]."}, "CD38": {"system": "CD38", "experiment": "Immunophenotyping (flow cytometry) of CD38 on CLL cells", "assay_type": "cell-based, human", "conditions": "0.5 μM, 48 h, vs vehicle, n=6, P<0.05", "description": "as §1"}, "CLL cells [4]": {"system": "CLL cells", "experiment": "Immunoliposome FAM-ODN uptake studies", "assay_type": "cell-based, human", "description": "An ethanol dilution method was modified to prepare the FAM-ODN-loaded immunoliposomes.^25 Briefly, protamine sulfate in citric acid (20 mM, pH 4) was mixed with lipids (DC-Chol/Egg-PC/PEG-DSPE [molar ratio]=28.0:70.0:2.0) at a mass ratio of lipids:protamine=12.5:0.3, followed by addition of ODN in citric acid (20 mM, pH 4) at ODN/lipids/protamine (weight ratio)=1:12.5:0.3. The complexes were then dialyzed against citric acid (20 mM, pH 4) for 1 hour and then further dialyzed against N-2-hydroxyethylpiperazine-N′-2-ethanesulfonic acid-buffered saline (145 mM NaCl, 20 mM N-2-hydroxyethylpiperazine-N′-2-ethanesulfonic acid, pH 7.4) overnight, using a DispoDialyzer (Spectrum Labs, Rancho Dominguez, Calif.) with a molecular weight cutoff of 10,000 Da. Liposome size distribution was analyzed by dynamic light scattering on a NICOMP Particle Sizer Model 370 (Particle Sizing Systems, Santa Barbara, Calif.).\nA postinsertion method was adopted to incorporate antibody ligands into preformed liposomes containing FAM-ODN. In this method, rituximab, trastuzumab (anti-Her2), or alemtuzumab (anti-CD52) was incubated with 20× Traut reagent (2 hours at room temperature) to yield sulfhydryl-modified antibodies. The anti-CD20—sulfhydryl was then incubated with micelles of Mal-PEG-DSPE at a molar ratio of 1:10 and then incubated with FAM-ODN loaded liposomes for 1 hour at 37° C. Targeted liposomes with antibody-PEG-DSPE-to-lipid ratios of 1:1000 ([…]) were thus prepared.\nCLL cells were incubated at 10^6 cells/mL for 1 hour at 37° C. with rituximab-, trastuzumab-, or alemtuzumab-coated immunoliposome-FAM-ODN (CODN=1.0 μM) and washed twice in PBS. Cells were kept in culture in RPMI 10% fetal bovine serum for an additional 1, 4, and 24 hours, respectively, in the presence of either 0.5 μM lenalidomide or vehicle control. […] Cells were visualized on a Nikon fluorescence microscope (magnification ×200).\nThe inventors herein used a FAM-ODN formulated into rituximab-coated immunoliposomes. […] Cells were visualized on a Nikon fluorescence microscope (magnification, ×200)."}, "human monocytes": {"system": "human monocytes", "experiment": "Antibody-dependent cellular phagocytosis by human monocytes", "assay_type": "cell-based", "conditions": "data not shown"}, "[5]": {"conditions": "dose range 0.05-3 μM, evaluated at 24, 48 and 72 hours"}, "[6]": {"conditions": "rituximab-coated immunoliposome-FAM-ODN, 0.5 μM lenalidomide"}},
  "data": [
    {"smiles": "Nc1cccc2c1CN(C1CCC(=O)NC1=O)C2=O", "note": "(stereo not drawn) [lenalidomide]", "values": [
      {"measurement": "CD5 expression on CLL cells", "setting": "CD5", "result": "no changes"},
      {"measurement": "reduction in the proportion of CD20-expressing cells", "setting": "CD20 [1]; 0.5 μM, 48 h, compared with vehicle-treated controls, n=18, P<0.001", "result": "at least 40%"},
      {"measurement": "reduction in relative mean fluorescence intensity of CD20-expressing cells", "setting": "CD20 [1]; 0.5 μM, 48 h, compared with vehicle-treated controls, n=18, P=0.001", "result": "at least 40%"},
      {"measurement": "concentration of maximum effect on CD20 down-regulation", "setting": "CD20 [1]; [5]", "result": 0.5, "unit": "µM"},
      {"measurement": "time of maximum effect on CD20 down-regulation", "setting": "CD20 [1]; [5]", "result": 72, "unit": "h"},
      {"measurement": "CD20 internalization in CLL cells", "setting": "CD20 [2]", "result": "actively internalized"},
      {"measurement": "apoptosis in vitro", "setting": "CLL cells [3]", "result": "no apoptosis"},
      {"measurement": "CD38 activation marker level on CLL cells", "setting": "CD38", "result": "increased levels"},
      {"measurement": "internalization of fluorochrome-labeled ODN from rituximab-coated immunoliposomes", "setting": "CLL cells [4]; 0.5 μM lenalidomide after 1 h immunoliposome-FAM-ODN (1.0 μM), N=3", "result": "enhanced internalization"},
      {"measurement": "earliest time of enhanced ODN internalization", "setting": "CLL cells [4]; [6]", "result": 1, "unit": "h"},
      {"measurement": "time of maximum effect on ODN internalization", "setting": "CLL cells [4]; [6]", "result": 24, "unit": "h"},
      {"measurement": "antibody-dependent cellular phagocytosis", "setting": "human monocytes", "result": "not modulated"}
    ]}
  ]
}
